In brackets after ≈: the same amount, converted by molar mass. Activity calls are given as the source filed them. No cut-off for these calls is given here.
Experiments:
Homo sapiens = species: Homo sapiens; test: Cytotoxicity against human T-cell leukemia, CCRF-HSB-2, at concentration up to 100 ug/mL; NA means not active; assay type: functional
Human alphaherpesvirus 1 [1] = test: Antiviral activity against herpes simplex virus type-1 at concentration up to 100 ug/mL; NA means not active; assay type: functional, organism-based
Human alphaherpesvirus 2 [2] = test: Antiviral activity against herpes simplex virus type-2 at concentration up to 100 ug/mL; NA means not active; assay type: functional, organism-based
Human alphaherpesvirus 1 [3] = test: Effective dose required for antiviral activity against herpes simplex virus type-1; assay type: functional; conditions: read-out: ED50 (the source's name)
Human alphaherpesvirus 2 [4] = test: Effective dose required for antiviral activity against herpes simplex virus type-2; assay type: functional; conditions: read-out: ED50 (the source's name)

In the case of Nc1ccn([C@H]2S[C@@H](CO)[C@H](O)[C@H]2O)c(=O)n1, the Activity (Homo sapiens) is reported as “inactive”, the Activity (Human alphaherpesvirus 1 [1]) is reported as “inactive” and the Activity (Human alphaherpesvirus 2 [2]) is reported as “inactive”.

With Nc1ccn([C@@H]2S[C@@H](CO)[C@H](O)[C@H]2O)c(=O)n1 the Activity (Homo sapiens) was “inactive”, the EC50 (Human alphaherpesvirus 1 [3]) was 10 mg/L (≈ 38.6 µM) and the EC50 (Human alphaherpesvirus 2 [4]) was 10 mg/L (≈ 38.6 µM).

Cc1cn([C@H]2S[C@@H](CO)[C@H](O)[C@H]2O)c(=O)[nH]c1=O was tested, and the Activity (Homo sapiens) was “inactive”, the Activity (Human alphaherpesvirus 1 [1]) was “inactive” and the Activity (Human alphaherpesvirus 2 [2]) was “inactive”.

Cc1cn([C@@H]2S[C@@H](CO)[C@H](O)[C@H]2O)c(=O)[nH]c1=O was tested, and the Activity (Homo sapiens) was “inactive”, the Activity (Human alphaherpesvirus 1 [1]) was “inactive” and the Activity (Human alphaherpesvirus 2 [2]) was “inactive”.

— ChEMBL document CHEMBL1131562, “Synthesis of L-enantiomers of 4'-thioarabinofuranosyl pyrimidine nucleosides” (1998)
